Data on 16 compounds can be found in patent US20260078103A1, “ISOQUINOLONES AS PI3K INHIBITORS” (OnKure, Inc., priority 2022, published 2026).

Common to all, as to type: cell-based
In assay [1] the test system is phosphorylation of AKT (pAKT) in T47D cells expressing mutant PI3Ka (H1047R). The experiment in a line: In vitro cell pAKT (Ser473) HTRF, T47D cells. The settings on record: cellular pAKT, T47D cells, mutant PI3Ka (H1047R), 6 hours, read-out: Avg T-47D IC50. In short, it runs like this:
(§1)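 pAKT (Ser473) was quantified by HTRF in lysates from cells exposed 6 h at 37 °C to 10-point compound series, with T47D in insulin-supplemented RPMI/10% FBS and SKBR3 in McCoy's 5a/10% FBS. Controls: 0.1% DMSO (high) and 10 uM alpelisib (low). IC50 from sigmoidal curve fitting.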
(In general: In TR-FRET formats the signal depends on donor and acceptor labels being close together.)

Assay [2] deals with T47D cells expressing mutant PI3Ka (H1047R). The experiment in a line: In vitro cell proliferation, T47D cells (CellTiter-Glo). The settings on record: inhibition of proliferation, read-out: Avg T-47D EC50. The method, boiled down:
(§2)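 T47D (PI3Kα H1047R; RPMI, 10% FBS, insulin 0.2 units/mL) or SKBR3 (WT PI3Kα; McCoys 5a, 10% FBS) cells seeded at 1,500 cells/well on 10-point compound dilutions, grown 72 h at 37 °C. CellTiter-Glo luminescence; inhibition normalised to 0.1% DMSO and 10 uM alpelisib, EC50 from four-parameter fit.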
For orientation: Cellular ATP, detected with luciferase, serves as a proxy for viable cell number.

The subject of assay [3] is SKBR3 cells express WT PI3Ka. The assay can be described thus: In vitro cell proliferation, SKBR3 cells (CellTiter-Glo). The settings on record: inhibition of proliferation. In short, it runs like this: as §2
Assay [4] concerns phosphorylation of AKT (pAKT) in SKBR3 cells express WT PI3Ka. The experiment in a line: In vitro cell pAKT (Ser473) HTRF, SKBR3 cells. The settings on record: cellular pAKT. In short, it runs like this: as §1

The structures appear in SMILES notation. Read-outs that look alike come from different tables or passages of the source.

For orientation: IC50 means the concentration that gives 50% inhibition. By EC50 is commonly meant the concentration that produces a half-maximal response. In the case of `Cc1cc([C@@H](C)Nc2ccccc2C(=O)O)c2cc(-c3ccc(OC(F)F)nc3)n(C)c(=O)c2c1` [Example 189], the IC50 in assay [1] (Homo sapiens, T47D, 6 h) is 1 to 500 nM; in assay [4] (Homo sapiens, SK-BR-3, 6 h), more than 15000 nM. Besides, the EC50 in assay [2] (Homo sapiens, T47D, 72 h) is 1 to 500 nM; in assay [3] (Homo sapiens, SK-BR-3, 72 h) it was more than 15000 nM.
Regarding `Cc1cc(C(C)Nc2ccccc2C(=O)O)c2cc(N3CC4C(C3)C4C(F)(F)F)n(C)c(=O)c2c1` (stereo not shown) [Example 191], the IC50 was 1 to 500 nM in assay [1] and more than 15000 nM in assay [4] (6 hours). Moreover, the EC50 in assay [2] (72 hours) is 500 to 2000 nM; in assay [3] (72 hours), more than 15000 nM.
With `Cc1cc([C@@H](C)Nc2ccccc2C(=O)O)c2cc(N3CC(F)(c4cccnc4)C3)n(C)c(=O)c2c1` [Example 192], the IC50 in assay [1] (Homo sapiens, T47D, 6 h) is 1 to 500 nM; in assay [4] (Homo sapiens, SK-BR-3, 6 h), more than 15000 nM. For the same compound, the concentration for a half-maximal effect (EC50) was 1 to 500 nM in assay [2] (Homo sapiens, T47D, 72 h) and more than 15000 nM in assay [3] (Homo sapiens, SK-BR-3, 72 h).
On to `COCC1CN(c2cc3c([C@@H](C)Nc4ccccc4C(=O)O)cc(C)cc3c(=O)n2C)C1` [Example 193], for which the IC50 in assay [1] (Homo sapiens, T47D, 6 h) is 1 to 500 nM; in assay [4] (Homo sapiens, SK-BR-3, 6 h), more than 15000 nM. For the same compound, the EC50 was 500 to 2000 nM in assay [2] (Homo sapiens, T47D, 72 h) and more than 15000 nM in assay [3] (Homo sapiens, SK-BR-3, 72 h).
With `Cc1cc([C@@H](C)Nc2ccccc2C(=O)O)c2cc(-c3ccc(Oc4ccc(F)cc4)nc3)n(C)c(=O)c2c1` [Example 194], the IC50 in assay [1] was 1 to 500 nM; in assay [4] (6 hours), more than 15000 nM. Besides, the EC50 in assay [2] (72 hours) was 500 to 2000 nM; in assay [3] (72 hours), more than 15000 nM.
Regarding `Cc1cc([C@@H](C)Nc2ccccc2C(=O)O)c2cc(N3CC4(CCCN(CC(F)(F)F)C4)C3)n(C)c(=O)c2c1` [Example 195], the IC50 in assay [1] is 1 to 500 nM; in assay [4] (6 hours), more than 15000 nM. Also, the results for the EC50 in assay [2] (72 hours) and in assay [3] (72 hours) were 500 to 2000 nM and more than 15000 nM, respectively.
Turning to `Cc1cc([C@@H](C)Nc2ccccc2C(=O)O)c2cc(N3CCN(c4cccc(C)n4)CC3)n(C)c(=O)c2c1` [Example 196], the results for the IC50 in assay [1] and in assay [4] (6 hours) were 1 to 500 nM and 2000 to 15000 nM, respectively. For the same compound, the EC50 was 1 to 500 nM in assay [2] (72 hours) and more than 15000 nM in assay [3] (72 hours).
Regarding `Cc1cc([C@@H](C)Nc2ccccc2C(=O)O)c2cc(N3CCN(c4ccccc4C#N)CC3)n(C)c(=O)c2c1` [Example 197], the IC50 in assay [1] (Homo sapiens, T47D, 6 h) was 1 to 500 nM; in assay [4] (Homo sapiens, SK-BR-3, 6 h) it was 2000 to 15000 nM. The EC50 in assay [2] (Homo sapiens, T47D, 72 h) is 1 to 500 nM; in assay [3] (Homo sapiens, SK-BR-3, 72 h) it was more than 15000 nM.
As for `Cc1cc([C@@H](C)Nc2ccccc2C(=O)O)c2cc(N3CCN(c4ncnn4C)CC3)n(C)c(=O)c2c1` [Example 198], the IC50 in assay [1] (Homo sapiens, T47D, 6 h) was 500 to 2000 nM; in assay [4] (Homo sapiens, SK-BR-3, 6 h) it was more than 15000 nM. The EC50 in assay [2] (Homo sapiens, T47D, 72 h) is 500 to 2000 nM; in assay [3] (Homo sapiens, SK-BR-3, 72 h), more than 15000 nM.
As to `Cc1cc([C@@H](C)Nc2ccccc2C(=O)O)c2cc(N3CCN(c4ncccc4C#N)CC3)n(C)c(=O)c2c1` [Example 199], the IC50 fell in the range of 1 to 500 nM in assay [1] (Homo sapiens, T47D, 6 h) and 2000 to 15000 nM in assay [4] (Homo sapiens, SK-BR-3, 6 h). Further, the EC50 in assay [2] (Homo sapiens, T47D, 72 h) lay within 1 to 500 nM; in assay [3] (Homo sapiens, SK-BR-3, 72 h) it was 2000 to 15000 nM.
For the compound `Cc1cc([C@@H](C)Nc2ccccc2C(=O)O)c2cc(N3CCN(Cc4cnn(C)c4)CC3)n(C)c(=O)c2c1` [Example 200], the IC50 was 500 to 2000 nM in assay [1] (Homo sapiens, T47D, 6 h) and more than 15000 nM in assay [4] (Homo sapiens, SK-BR-3, 6 h). Moreover, the EC50 in assay [2] (Homo sapiens, T47D, 72 h) is 500 to 2000 nM; in assay [3] (Homo sapiens, SK-BR-3, 72 h), more than 15000 nM.
On to `Cc1cc([C@@H](C)Nc2ccccc2C(=O)O)c2cc(-c3ccc(OCC(F)F)nc3)n(C)c(=O)c2c1` [Example 201], for which the IC50 in assay [1] (Homo sapiens, T47D, 6 h) was 1 to 500 nM; in assay [4] (Homo sapiens, SK-BR-3, 6 h), more than 15000 nM. In addition, the EC50 in assay [2] (Homo sapiens, T47D, 72 h) was 1 to 500 nM; in assay [3] (Homo sapiens, SK-BR-3, 72 h) it was more than 15000 nM.
As for `Cc1cc([C@@H](C)Nc2ccccc2C(=O)O)c2cc(-c3ccc(O[C@H]4C[C@@H](F)C4)nc3)n(C)c(=O)c2c1` [Example 202], the values for the IC50 in assay [1] and in assay [4] (6 hours) were 1 to 500 nM and more than 15000 nM, respectively. Also, the EC50 in assay [2] (72 hours) was 1 to 500 nM; in assay [3] (72 hours) it was more than 15000 nM.
`Cc1cc([C@@H](C)Nc2ccccc2C(=O)O)c2cc(N3CCN(C(=O)OC4CC4)CC3)n(C)c(=O)c2c1` [Example 203]: the concentration for half-maximal inhibition (IC50) in assay [1] (Homo sapiens, T47D, 6 h) is 1 to 500 nM; in assay [4] (Homo sapiens, SK-BR-3, 6 h), more than 15000 nM. Besides, the EC50 in assay [2] (Homo sapiens, T47D, 72 h) was 1 to 500 nM; in assay [3] (Homo sapiens, SK-BR-3, 72 h), more than 15000 nM.
For the compound `Cc1cc([C@@H](C)Nc2ccccc2C(=O)O)c2cc(N3CCN(c4cccnc4C)CC3)n(C)c(=O)c2c1` [Example 206], the IC50 in assay [1] (Homo sapiens, T47D, 6 h) is 1 to 500 nM; in assay [4] (Homo sapiens, SK-BR-3, 6 h), 500 to 2000 nM. The EC50 in assay [2] (Homo sapiens, T47D, 72 h) lay in the range of 1 to 500 nM; in assay [3] (Homo sapiens, SK-BR-3, 72 h) it was 2000 to 15000 nM.
On to `Cc1cc([C@@H](C)Nc2ccccc2C(=O)O)c2cc(N3CC4CC(C3)N4CC(F)(F)F)n(C)c(=O)c2c1` [Example 207], for which the IC50 in assay [1] (Homo sapiens, T47D, 6 h) was 1 to 500 nM; in assay [4] (Homo sapiens, SK-BR-3, 6 h) it was more than 15000 nM. The EC50 was 1 to 500 nM in assay [2] (Homo sapiens, T47D, 72 h) and more than 15000 nM in assay [3] (Homo sapiens, SK-BR-3, 72 h).
